Test results reported in US9079905B2, “Compounds for the treatment of CNS disorders” (Boehringer Ingelheim International GmbH, priority 2008, dated 2015).

Molecular target: T1, human PDE9A2 (Homo sapiens, UniProt O76083)
T1 construct: made in house; host or cells: Sf9 insect cells (infected; crude lysate used as enzyme source)
Assay: PDE9A2 enzymatic activity assay (scintillation proximity assay)
Assay type: biochemical
Conditions: for IC50: specific IC50 value is within the given range; for inhibition at 10 µM / % Inhibition of PDE 9A2: at 10 μM
Experimental: The PDE9A2 enzymatic activity assay was run as scintillation proximity assay (SPA), in general according to the protocol of the manufacturer (Amersham Biosciences, product number: TRKQ 7100).
As enzyme source, lysate (PBS with 1% Triton X-100 supplemented with protease inhibitors, cell debris removed by centrifugation at 13.000 rpm for 30 min) of SF 9 cell expressing the human PDE9A2 was used. The total protein amount included in the assay varied upon infection and production efficacy of the SF9 cells and lay in the range of 0.1-100 ng.
In general, the assay conditions were as follows: • total assay volume: 40 microliter • protein amount: 0.1-50 ng • substrate concentration (cGMP): 20 nanomolar; ˜1 mCi/1 • incubation time: 60 min at room temperature • final DMSO concentration: 0.2-1
The assays were run in 384-well format. The test reagents as well as the enzyme and the substrate were diluted in assay buffer. The assay buffer contained 50 mM Tris, 8.3 mM MgCl2, 1.7 mM EGTA, 0.1% BSA, 0.05% Tween 20; the pH of assay buffer was adjusted to 7.5. The reaction was stopped by applying a PDE9 specific inhibitor (e.g. compounds according to WO04099210 or WO04099211) in excess.
The activity of the positive control (minus the negative control=background) is set to 100% and activity in the presence of test compound is expressed relative to these 100%. Within this setting, an inhibition above 100% might be possible due to the nature of the variation of the positive control within the assay. In the following inhibition of PDE 9A2 is presented for a concentration at 10 μM, if not indicated otherwise.
IC50 can be calculated with GraphPadPrism or other suited software setting the positive control as 100 and the negative control as 0. For calculation of IC50 dilutions of the test compounds (substrates) are to be selected and tested following the aforementioned protocol.

[1] = read-out: % Inhibition of PDE 9A2

T1 sequence (O76083 1-533 isoform O76083-2): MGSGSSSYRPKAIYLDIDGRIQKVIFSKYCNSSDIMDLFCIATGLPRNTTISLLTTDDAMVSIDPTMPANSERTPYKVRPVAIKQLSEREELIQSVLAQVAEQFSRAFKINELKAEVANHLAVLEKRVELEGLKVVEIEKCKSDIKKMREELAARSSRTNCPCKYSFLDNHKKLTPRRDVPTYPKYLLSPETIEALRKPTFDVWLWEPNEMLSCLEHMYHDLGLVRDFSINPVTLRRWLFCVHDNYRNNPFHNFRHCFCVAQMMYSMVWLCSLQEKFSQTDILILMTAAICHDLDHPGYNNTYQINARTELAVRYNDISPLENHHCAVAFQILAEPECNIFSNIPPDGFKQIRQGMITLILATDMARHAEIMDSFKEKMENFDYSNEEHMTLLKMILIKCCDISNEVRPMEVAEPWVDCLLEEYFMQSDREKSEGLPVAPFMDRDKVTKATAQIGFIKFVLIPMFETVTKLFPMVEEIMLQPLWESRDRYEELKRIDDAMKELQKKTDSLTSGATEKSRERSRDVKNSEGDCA

Work on `CC(Cc1nc2c(cnn2C2CCC(F)(F)CC2)c(=O)[nH]1)C(=O)N1CCCCC1` (stereo not drawn) [Example 39] yielded an inhibition at 10 µM [1] of 84% and an IC50 of 101 to 1500 nM.
`O=C(NC1CCCC(n2ncc3c(=O)[nH]c(Cc4ccccc4OC(F)(F)F)nc32)C1)c1ccccc1` (mixture of isomers) [Example 85] was tested, and the inhibition at 10 µM [1] was 94% and the IC50 was 101 to 1500 nM.
For `COc1cc(-c2ccccc2Cc2nc3c(cnn3C3CCC(F)(F)CC3)c(=O)[nH]2)ccn1` [Example 55], the inhibition at 10 µM [1] was 100% and the IC50 was 1 to 100 nM.
`O=c1[nH]c(Cc2ccccc2-c2ccnnc2)nc2c1cnn2C1CCC(F)(F)CC1` [Example 98] was tested, and the inhibition at 10 µM [1] was 100% and the IC50 was 1 to 100 nM.
`O=c1[nH]c(CCCC(F)(F)F)nc2c1cnn2C1CCC(F)(F)CC1` [Example 32] gave an inhibition at 10 µM [1] of 98% and an IC50 of 1 to 100 nM.
`O=c1[nH]c(CC2CCC2)nc2c1cnn2C1CCC(F)CC1` (stereo not drawn) [Example 111] was tested, and the inhibition at 10 µM [1] was 74% and the IC50 was 1 to 100 nM.
`COc1ccc(-c2cc(F)ccc2Cc2nc3c(cnn3C3CCC(F)(F)CC3)c(=O)[nH]2)cc1` [Example 68] was tested, and the inhibition at 10 µM [1] was 96% and the IC50 was 101 to 1500 nM.
Work on `CC(C)(C)OC(=O)NC1CCCC(n2ncc3c(=O)[nH]c(CC4CCCC4)nc32)C1` (mixture of isomers) [Example 16] yielded an inhibition at 10 µM [1] of 104% and an IC50 of 1 to 100 nM.
`CC1(C)CC(Cc2nc3c(cnn3C3CCC(F)(F)CC3)c(=O)[nH]2)C(=O)O1` (racemic) [Example 28] gave an inhibition at 10 µM [1] of 91% and an IC50 of 101 to 1500 nM.
`CCC(Cc1nc2c(cnn2C2CCC(F)(F)CC2)c(=O)[nH]1)C(F)(F)F` (single isomer, unassigned) [Example 102] was tested, and the “% Inhibition of PDE 9A2” value was 96% and the IC50 was 101 to 1500 nM.
`CC1(C)CC(Cc2nc3c(cnn3C3CCC(F)(F)CC3)c(=O)[nH]2)CO1` (racemic) [Example 52] gave an inhibition at 10 µM [1] of 98% and an IC50 of 1 to 100 nM.
With `Cc1ccn(-c2ccccc2Cc2nc3c(cnn3C3CCC(F)(F)CC3)c(=O)[nH]2)n1` [Example 106] the inhibition at 10 µM [1] was 83% and the IC50 was 1 to 100 nM.
For `O=c1[nH]c(Cc2cc(F)ccc2-c2ccccn2)nc2c1cnn2C1CCC(F)(F)CC1` [Example 90], the inhibition at 10 µM [1] was 97% and the IC50 was 1 to 100 nM.
`O=c1[nH]c(CC2CCOC2)nc2c1cnn2C1CCC(F)(F)CC1` (stereo not drawn) [Example 23] was tested, and the inhibition at 10 µM [1] was 100% and the IC50 was 101 to 1500 nM.
`O=c1[nH]c(Cc2ccccc2-c2ccccn2)nc2c1cnn2C1CCC(F)(F)CC1` [Example 91] gave an inhibition at 10 µM [1] of 95% and an IC50 of 1 to 100 nM.
`CCCC1OCCCC1Cc1nc2c(cnn2C2CCC(F)(F)CC2)c(=O)[nH]1` (racemic) [Example 24] gave an inhibition at 10 µM [1] of 98% and an IC50 of 101 to 1500 nM.
For `O=c1[nH]c(CC2CCCC2)nc2c1cnn2C1CCC(F)CC1` (stereo not drawn) [Example 113], the inhibition at 10 µM [1] was 98% and the IC50 was 1 to 100 nM.
`N#Cc1ccc(-c2ccc(F)cc2Cc2nc3c(cnn3C3CCC(F)(F)CC3)c(=O)[nH]2)cc1` [Example 72-6] was tested, and the inhibition at 1 µM (at 1 μM, read-out: % Inhibition of PDE 9A2) was 96% and the IC50 was 1 to 100 nM.
For `COc1ccc(-c2ccc(F)cc2Cc2nc3c(cnn3C3CCC(F)(F)CC3)c(=O)[nH]2)cc1` [Example 72-5], the inhibition at 10 µM [1] was 99% and the IC50 was 1 to 100 nM.
`Cn1cc(-c2ccc(F)cc2Cc2nc3c(cnn3C3CCC(F)(F)CC3)c(=O)[nH]2)cn1` [Example 72-3] gave an inhibition at 10 µM [1] of 98% and an IC50 of 1 to 100 nM.
For `N#Cc1ccc(-c2ccc(F)cc2Cc2nc3c(cnn3C3CCC(F)(F)CC3)c(=O)[nH]2)cn1` [Example 57], the inhibition at 10 µM [1] was 101% and the IC50 was 1 to 100 nM.
Work on `O=c1[nH]c(CC2CCCC2)nc2c1cnn2C1CCCC1O` (mixture of isomers) [Example 10] yielded an inhibition at 10 µM [1] of 102% and an IC50 of 1 to 100 nM.
Work on `O=c1[nH]c(Cc2ccccc2I)nc2c1cnn2C1CCC(F)(F)CC1` [Example 36] yielded an inhibition at 10 µM [1] of 99% and an IC50 of 1 to 100 nM.
In the case of `CC(Cc1nc2c(cnn2C2CCC(F)(F)CC2)c(=O)[nH]1)C(F)(F)F` (single isomer, unassigned) [Example 48], the “% Inhibition of PDE 9A2” value is reported as 96% and the IC50 is reported as 101 to 1500 nM.
For `O=c1[nH]c(Cc2ccc(F)cc2-c2ccncc2)nc2c1cnn2C1CCC(F)(F)CC1` [Example 72], the inhibition at 10 µM [1] was 97% and the IC50 was 101 to 1500 nM.
Molecule `O=c1[nH]c(Cc2ccccc2-n2cccn2)nc2c1cnn2C1CCC(F)(F)CC1` [Example 95] has an inhibition at 10 µM [1] of 97% and an IC50 of 1 to 100 nM.
Work on `CCOC(=O)NC1CCCC(n2ncc3c(=O)[nH]c(Cc4ccccc4OC(F)(F)F)nc32)C1` (mixture of isomers) [Example 19] yielded an inhibition at 10 µM [1] of 100% and an IC50 of 1 to 100 nM.
Molecule `Nc1ccccc1Cc1nc2c(cnn2C2CCC(F)(F)CC2)c(=O)[nH]1` [Example 107] has an inhibition at 10 µM [1] of 100% and an IC50 of 1 to 100 nM.
`CC(=O)NC1CCCC(n2ncc3c(=O)[nH]c(Cc4ccccc4OC(F)(F)F)nc32)C1` (mixture of isomers) [Example 49] was tested, and the inhibition at 10 µM [1] was 99% and the IC50 was 1 to 100 nM.
In the case of `Cn1cc(-c2cccnc2Cc2nc3c(cnn3C3CCC(F)(F)CC3)c(=O)[nH]2)cn1` [Example 94], the inhibition at 10 µM [1] is reported as 98% and the IC50 is reported as 1 to 100 nM.
`NC(=O)c1ccc(-c2ccc(F)cc2Cc2nc3c(cnn3C3CCC(F)(F)CC3)c(=O)[nH]2)cn1` [Example 61] gave an inhibition at 10 µM [1] of 99% and an IC50 of 1 to 100 nM.
`O=c1[nH]c(Cc2cccc(C(F)(F)F)c2)nc2c1cnn2C1CCC(F)(F)CC1` [Example 6] showed an inhibition at 10 µM [1] of 98% and an IC50 of 1 to 100 nM.
For `Cc1ncn(-c2ccccc2Cc2nc3c(cnn3C3CCC(F)(F)CC3)c(=O)[nH]2)n1` [Example 95-1], the inhibition at 10 µM [1] was 111% and the IC50 was 1 to 100 nM.
With `Cc1cccnc1Cc1nc2c(cnn2C2CCC(F)(F)CC2)c(=O)[nH]1` [Example 35] the inhibition at 10 µM [1] was 94% and the IC50 was 1 to 100 nM.
For `O=c1[nH]c(Cc2cc(F)ccc2-c2cncc(F)c2)nc2c1cnn2C1CCC(F)(F)CC1` [Example 72-9], the inhibition at 10 µM [1] was 100% and the IC50 was 1 to 100 nM.
With `O=c1[nH]c(Cc2ccccc2OC(F)(F)F)nc2c1cnn2C1CCC(F)(F)CC1` [Example 3] the inhibition at 10 µM [1] was 94% and the IC50 was 1 to 100 nM.
Molecule `N#Cc1ccc(-c2cc(F)ccc2Cc2nc3c(cnn3C3CCC(F)(F)CC3)c(=O)[nH]2)cn1` [Example 63] has an inhibition at 10 µM [1] of 93% and an IC50 of 101 to 1500 nM.
For `O=c1[nH]c(Cc2ccccc2C2CC2)nc2c1cnn2C1CCC(F)(F)CC1` [Example 103], the inhibition at 3.3 µM [1] was 96% and the IC50 was 1 to 100 nM.
`Cc1nc(-c2ccccc2Cc2nc3c(cnn3C3CCC(F)(F)CC3)c(=O)[nH]2)n[nH]1` [Example 99] showed an inhibition at 10 µM [1] of 100% and an IC50 of 1 to 100 nM.
With `O=c1[nH]c(C(F)c2ccccc2-c2ccncc2)nc2c1cnn2C1CCC(F)(F)CC1` (racemic) [Example 72-10] the inhibition at 3.3 µM [1] was 52% and the IC50 was 101 to 1500 nM.
Work on `COc1cccc(Cl)c1Cc1nc2c(cnn2C2CCC(F)(F)CC2)c(=O)[nH]1` [Example 37] yielded an inhibition at 10 µM [1] of 97% and an IC50 of 1 to 100 nM.
`COc1ccccc1Cc1nc2c(cnn2C2CCC(F)(F)CC2)c(=O)[nH]1` [Example 48-3] showed an inhibition at 10 µM [1] of 95% and an IC50 of 1 to 100 nM.
For `Cc1nc(-c2ccccc2Cc2nc3c(cnn3C3CCC(F)(F)CC3)c(=O)[nH]2)no1` [Example 97], the inhibition at 10 µM [1] was 100% and the IC50 was 1 to 100 nM.
With `CCCc1nc2c(cnn2C2CCC(F)(F)CC2)c(=O)[nH]1` [Example 22] the inhibition at 10 µM [1] was 104% and the IC50 was 1 to 100 nM.
For `O=c1[nH]c(Cc2ccc(F)cc2-c2cccnc2)nc2c1cnn2C1CCC(F)(F)CC1` [Example 71], the inhibition at 10 µM [1] was 98% and the IC50 was 1 to 100 nM.
For `Cc1ccc(-c2ccccc2Cc2nc3c(cnn3C3CCC(F)(F)CC3)c(=O)[nH]2)cn1` [Example 73], the inhibition at 10 µM [1] was 98% and the IC50 was 1 to 100 nM.
Molecule `Cn1nccc1-c1ccc(F)cc1Cc1nc2c(cnn2C2CCC(F)(F)CC2)c(=O)[nH]1` [Example 72-2] has an inhibition at 10 µM [1] of 98% and an IC50 of 1 to 100 nM.
`O=c1[nH]c(Cc2cc(F)ccc2-n2cccn2)nc2c1cnn2C1CCC(F)(F)CC1` [Example 89] gave an inhibition at 10 µM [1] of 98% and an IC50 of 1 to 100 nM.
`O=c1[nH]c(Cc2cc(F)ccc2-c2ccncc2)nc2c1cnn2C1CCC(F)(F)CC1` [Example 70] gave an inhibition at 10 µM [1] of 100% and an IC50 of 1 to 100 nM.
For `Cc1ccc(-c2ccccc2Cc2nc3c(cnn3C3CCC(F)(F)CC3)c(=O)[nH]2)o1` [Example 93], the inhibition at 10 µM [1] was 94% and the IC50 was 1 to 100 nM.
`COc1ccc(Cc2nc3c(cnn3C3CCC(F)(F)CC3)c(=O)[nH]2)cc1` [Example 26] gave an inhibition at 10 µM [1] of 100% and an IC50 of 1 to 100 nM.
`NC(=O)c1ccc(-c2cc(F)ccc2Cc2nc3c(cnn3C3CCC(F)(F)CC3)c(=O)[nH]2)cn1` [Example 62] was tested, and the inhibition at 10 µM [1] was 100% and the IC50 was 1 to 100 nM.
In the case of `O=c1[nH]c(Cc2cc(F)ccc2-c2cccnc2)nc2c1cnn2C1CCC(F)(F)CC1` [Example 66], the inhibition at 10 µM [1] is reported as 100% and the IC50 is reported as 1 to 100 nM.
Molecule `O=c1[nH]c(Cc2ccccc2)nc2c1cnn2C1CCC(F)(F)CC1` [Example 4] has an inhibition at 10 µM [1] of 100% and an IC50 of 1 to 100 nM.
